Data as given in patent publication US20240116863A1, “DIPHENYL THIOUREA AND DIPHENYL UREA DERIVATIVES AS INHIBITORS OF ENDOCYTOSIS” (priority 2022, published 2024).
“Also recorded” adds a separate entry of the source. Where two headings read alike, the source gives them in different places.

Columns and labels:
[1] = test system: transferrin endocytosis in A549 cells; type: cell-based; settings: 10 μM
[2] = test system: EGF endocytosis in A549 cells; type: cell-based; settings: 10 μM
[3] = test system: cholera toxin B (CTXB) endocytosis in A549 cells; type: cell-based; settings: 10 μM
[4] = test system: organelle acidification in A549 cells; type: cell-based; settings: 10 μM, 1 h
A549 cells = type: cell-based, Human
Procedure: Human lung epithelial cells (A549) were seeded in a 96-well optical-bottom plate. When the cells reached 70-80% confluency, the cells were treated with the compounds (DPUDs and DPTUD) dissolved in DMSO) (50 ∥M) for 12 h at 37° C. Following treatment, the cells were washed with PBS and fixed with 4% formaldehyde for 20 min at room temperature. Nucleus was stained with Hoechst diluted in PBS (1:10000). High-content microscopy and image analysis were performed to quantitate cell number (FIG. 3). All data are represented as mean±SD. The P-value was determined using one-way ANOVA with multiple comparisons w.r.t. DMSO. ns: P>0.05, *P<0.05, **P<0.01, ***P<0.001, ****P<0.0001.

[5] = test system: SARS-CoV-2 Delta (B.1.617.2) and Omicron (B.1.1.529) strains; assay: Infection of Vero-E6 cells with additional SARS-CoV-2 strains; type: cell-based
IAV (WSN) [6] = type: cell-based, influenza A virus
IAV (WSN) [7] = type: in vivo, C57BL/6 mice
IAV (X-31) = type: cell-based, influenza A virus; settings: 10 μM, A549 cells
cellular endocytosis = settings: cited from earlier work

Compound: FC(F)(F)c1cc(NC(=S)Nc2cc(C(F)(F)F)cc(C(F)(F)F)c2)cc(C(F)(F)F)c1 [DPTUD, 1,3-bis(3,5-bis(trifluoromethyl)phenyl)thiourea]
- transferrin uptake [1]: significantly blocked
- EGF uptake [2]: significantly blocked
- cholera toxin B (CTXB) uptake [3]: significantly blocked
- organelle acidification (LysoTracker-positive signal) [4]: robustly inhibited
- cytotoxicity (A549 cells; 50 μM, 12 h, A549 cells): did not show cytotoxicity

Compound: O=C(Nc1cc(C(F)(F)F)cc(C(F)(F)F)c1)Nc1cc(C(F)(F)F)cc(C(F)(F)F)c1 [DPUD-1, 1,3-bis(3,5-bis(trifluoromethyl)phenyl)urea]
- effect on infection with SARS-CoV-2 Delta and Omicron [5]: highly effective; also recorded: Reduced infection
- IAV (WSN) titre in virus plaque assay (IAV (WSN) [6]): significant reduction
- body weight recovery of the infected mice (IAV (WSN) [7]; […], 1 mg/kg i.p. twice daily 5 days): most effective
- lung viral titres (RT-PCR of NP gene and plaque assay) (IAV (WSN) [7]; mouse, in vivo): significant reduction
- survival of infected mice (IAV (WSN) [7]; mouse, in vivo): Better survival
- virus particle internalization in live cells (IAV (X-31)): majority of the virus particles failed to enter the cells

Compound: O=C(Nc1ccc(C(F)(F)F)cc1)Nc1ccc(C(F)(F)F)cc1 [DPUD-2, 1,3-bis(4-(trifluoromethyl)phenyl)urea]
- effect on infection with SARS-CoV-2 Delta and Omicron [5]: highly effective; also recorded: Reduced infection

Compound: O=C(Nc1cc(F)cc(F)c1)Nc1cc(F)cc(F)c1 [DPUD-16, 1,3-bis(3,5-difluorophenyl)urea]
- effect on infection with SARS-CoV-2 Delta and Omicron [5]: Reduced infection

Compound: O=C(Nc1ccc(OC(F)(F)F)cc1)Nc1ccc(OC(F)(F)F)cc1 [DPUD-20, 1,3-bis(4-(trifluoromethoxy)phenyl)urea]
- effect on infection with SARS-CoV-2 Delta and Omicron [5]: Reduced infection

Compound: O=C(Nc1cc(Br)cc(Br)c1)Nc1cc(Br)cc(Br)c1 [DPUD-23, 1,3-bis(3,5-dibromophenyl)urea]
- effect on infection with SARS-CoV-2 Delta and Omicron [5]: highly effective; also recorded: Reduced infection

Compound: CN(C)CCCN1c2ccccc2Sc2ccc(Cl)cc21 [chlorpromazine, reference compound]
- cytotoxicity (A549 cells; human): > 75%
- inhibitory concentration of known endocytosis inhibitor (cellular endocytosis; 7× higher than the derivatives): 70 µM

Compound: methyl-β-cyclodextrin
- inhibitory concentration of known endocytosis inhibitor (cellular endocytosis; 100× higher than the derivatives): 1000 µM
